Assay results reported in patent US20120322886A1, “USE OF A SATURATED AMINES COMPOUND IN MANUFACTURE OF MEDICAMENTS FOR […] HEMATOPOIETIC STEM CELL” (Institute of Transfusion Medicine, Academy of Mili -tary …, priority 2009, published 2012).

Assays:
hematopoietic stem cells = experiment: Mobilization of hematopoietic stem cells into peripheral blood (overall conclusion); format: in vivo; settings: summary statement; verification processes for other compounds not described
[1] = system: CD34+ cells in peripheral blood; experiment: Percentage of CD34+ cells in peripheral blood by flow cytometry; format: in vivo, C57 mice; settings: 5 mg/kg hypodermic injection, 4 h post injection, tail blood; compared to DMSO and G-CSF (FIG. 2)
Procedure: 9 C57 mice (Experimental animal center, Academy of Military Medical Sciences), male, were randomly divided into 3 groups: DMSO (Beijing Chemical Inc.) group with 3 mice, G-CSF (Xiamen Baote Biotechnology Inc.) group with 3 mice, TA01 group with 3 mice. Injection volume was calculated on the basis of 5 mg/kg body weight, and the medium for the injection was TE buffer with pH 7.5-8.5. At 4 h post hypodermic injection, 100 μL blood was harvested from tail and treated with RBC lysis buffer (Jingmei Biotechnology Inc.), wherein, the volume ratio of the blood to the RBC lysis buffer was 1:10. The two were uniformly mixed, stood for 10-15 min under room temperature, and then centrifuged for 6 min at 1500 rpm/min. After removing the supernatant, 100 ul 1% (v/v) serum (Hyclone Inc.) was added and mixed. Then 0.75 ul purified anti-mouse CD34 (Biolegend Inc) was added (operated on a superclean bench), mixed, and incubated for 1-2 h under room temperature. The mixture was added up to 1.5 ml with PBS containing 1% (v/v) serum, and then centrifuged for 5 min at 1500 rpm/min. After removing the supernatant, 100 ul 1% (v/v) serum was added and mixed. Then 2 ul Goat anti Mice antibody labeled with FITC (Beijing Zhongshanjinqiao Biotechnology Limited Co.) was added, mixed and incubated for 30 min under room temperature. […]

[2] = system: mice receiving a lethal irradiation; experiment: Survival of lethally irradiated mice after transplant of mobilized peripheral blood MNCs; format: in vivo, C57 mice; settings: 7.0 Gy 60Co irradiation; tail vein injection of MNCs from donors given 5 mg/kg, 4 h; survival in 30 days; compared to DMSO and G-CSF (FIG. 5)
Procedure: 9 C57 mice, male, were randomly divided into 3 groups, and then received a whole body irradiation by ^60Co γ ray at 2.72 Gy/min with a volume of 7.0 Gy. 9 C57 mice, male, were randomly divided into 3 groups: DMSO group with 3 mice, G-CSF group with 3 mice, and TA01 group with 3 mice. Injection volume was calculated on the basis of 5 mg/kg body weight, and the medium for injection was TE buffer with pH 7.5-8.5. At 4 h post hypodermic injection, the eyeballs were extracted and peripheral blood was collected into a 10 ml centrifuge tube which was rinsed with heparin in advance, and then PBS was added up to 5 ml and mixed. Mouse percoll (Tianjin Haoyang Bioproduct Technology Limited Co.) was preloaded into vials at 5 ml/vial (operated on a superclean bench), and then the blood mixed with PBS was slightly impregnated to the upper layer of the percoll and centrifuged for 20 min at 2000 rpm/min. Cells in the middle layer were transferred into a new 10 ml centrifuge tube which was filled up to 10 ml with PBS, centrifuged for 5 min at 1500 rpm/min to remove PBS in the supernatant. The tube was filled up to 10 ml with PBS, and centrifuged for another 5 min at 1500 rpm/min to remove PBS in the supernatant. Then the tube was filled up to 0.5 ml with PBS. […] The number of survival mice in 30 days was counted.

WBCs in peripheral blood = experiment: Number of WBCs in peripheral blood (Sysmex Microcell Counter); format: in vivo, C57 mice; settings: 5 mg/kg hypodermic injection, 4 h post injection, tail blood; compared to DMSO and G-CSF (FIG. 3)
Procedure: 9 C57 mice, male, were randomly divided into 3 groups: DMSO group with 3 mice, G-CSF group with 3 mice, and TA01 group with 3 mice. Injection volume was calculated on the basis of 5 mg/kg body weight, and the medium for injection was TE buffer with pH 7.5-8.5. At 4 h post hypodermic injection, 10 μl blood was harvested from tail and treated with 2 ml cell diluting buffer (Jinnan Bolai Biotechnology Limited Co.). The number of WBCs was determined by a Sysmex Microcell Counter.

MNCs in peripheral blood = experiment: CFU and CFU-GM generated by MNCs in peripheral blood (semisolid medium culture); format: in vivo, C57 mice; settings: 5 mg/kg hypodermic injection, blood at 4 h, MNCs cultured 7 days; compared to DMSO and G-CSF (FIG. 4)
Procedure: 9 C57 mice, male, were randomly divided into 3 groups: DMSO group with 3 mice, G-CSF group with 3 mice, TA01 group with 3 mice. Injection volume was calculated on the basis of 5 mg/kg body weight, and the medium for injection was TE buffer with pH 7.5-8.5. At 4 h post hypodermic injection, the eyeballs were extracted and the peripheral blood was collected into a 10 ml centrifuge tube which was rinsed with heparin (Tianjin Haoyang Bioproduct Technology Limited Co.) in advance, and then PBS (Hyclone Inc.) was added up to 5 ml and mixed. Mouse percoll (Tianjin Haoyang Bioproduct Technology Limited Co.) was preloaded into vials at 5 ml/vial (operated on a superclean bench), and then the blood mixed with PBS was slightly impregnated into the upper layer of the percoll and centrifuged for 20 min at 2000 rpm/min. Cells in the middle layer were transferred into a new 10 ml centrifuge tube which was filled up to 10 ml with PBS, and centrifuged for 5 min at 1500 rpm/min to remove PBS in the supernatant. The tube was filled up to 10 ml with PBS, centrifuged for another 5 min at 1500 rpm/min to remove PBS in the supernatant. Then, the tube was filled up to 1 ml with PBS. The number of cells was then counted and the number of the mononuclear cells (MNCs) per ml of the solution was calculated. […] Finally, CFU and CFU-GM were counted.

CN(C)CCN(CCN(C)C)CCN(C)C [TA01, Tris[2-(dimethylamino)ethyl]amine] was tested, and the “mobilization of hematopoietic stem cells into peripheral blood” value (hematopoietic stem cells) was “can efficiently mobilize hematopoietic stem cells into peripheral blood”, the “percentage of CD34+ cells in peripheral blood” value [1] was “can increase the percentage of CD34+ cells in peripheral blood compared to DMSO and G-CSF” and the “survival rate of mice receiving a lethal irradiation” value [2] was “survival rate of the mice receiving a lethal irradiation can be increased”. The “number of WBCs in peripheral blood” value (WBCs in peripheral blood) was “can increase the number of WBCs in peripheral blood compared to DMSO and G-CSF”, the “number of CFU generated by MNCs in peripheral blood” value (MNCs in peripheral blood) was “can promote the numbers of both CFU and CFU-GM” and the “number of CFU-GM generated by MNCs in peripheral blood” value (MNCs in peripheral blood) was “can promote the numbers of both CFU and CFU-GM”.
